The subject of data set [1] is MDA-MB-231 (human breast cancer cell). Briefly: In vitro anticancer (antiproliferative) MTT assay, MDA-MB-231. In kind it is cell-based. The procedure: (§1) A375, MDA-MB-231, MGC-803, SMMC-7721, SGC-7901 and L-02 cell lines were cultured in DMEM medium supplemented with 10% (V/V) heat-inactivated fetal bovine serum (FBS) (Biological Industries, Israel) along with 100 U/mL penicillin and […] streptomycin (Beyotime, China). Cells were grown in a humidified 5% CO2 atmosphere at 37 °C and maintained in a logarithmic growth phase for all experiments.
(§2) 2.5. Anticancer assay[23]

For data set [2], the system named is MGC-803 (human gastric cancer cell). As to the kind of experiment: In vitro anticancer (antiproliferative) MTT assay, MGC-803. It counts as cell-based. The procedure: as §1, §2
For a further data set, the target named is T1, telomerase (Homo sapiens, UniProt O14746).
T1 construct: assayed for telomerase activity using MGC-803 cells extract; endogenous in cells; host or cells: MGC-803 cell extract
T1 sequence (O14746 whole entry): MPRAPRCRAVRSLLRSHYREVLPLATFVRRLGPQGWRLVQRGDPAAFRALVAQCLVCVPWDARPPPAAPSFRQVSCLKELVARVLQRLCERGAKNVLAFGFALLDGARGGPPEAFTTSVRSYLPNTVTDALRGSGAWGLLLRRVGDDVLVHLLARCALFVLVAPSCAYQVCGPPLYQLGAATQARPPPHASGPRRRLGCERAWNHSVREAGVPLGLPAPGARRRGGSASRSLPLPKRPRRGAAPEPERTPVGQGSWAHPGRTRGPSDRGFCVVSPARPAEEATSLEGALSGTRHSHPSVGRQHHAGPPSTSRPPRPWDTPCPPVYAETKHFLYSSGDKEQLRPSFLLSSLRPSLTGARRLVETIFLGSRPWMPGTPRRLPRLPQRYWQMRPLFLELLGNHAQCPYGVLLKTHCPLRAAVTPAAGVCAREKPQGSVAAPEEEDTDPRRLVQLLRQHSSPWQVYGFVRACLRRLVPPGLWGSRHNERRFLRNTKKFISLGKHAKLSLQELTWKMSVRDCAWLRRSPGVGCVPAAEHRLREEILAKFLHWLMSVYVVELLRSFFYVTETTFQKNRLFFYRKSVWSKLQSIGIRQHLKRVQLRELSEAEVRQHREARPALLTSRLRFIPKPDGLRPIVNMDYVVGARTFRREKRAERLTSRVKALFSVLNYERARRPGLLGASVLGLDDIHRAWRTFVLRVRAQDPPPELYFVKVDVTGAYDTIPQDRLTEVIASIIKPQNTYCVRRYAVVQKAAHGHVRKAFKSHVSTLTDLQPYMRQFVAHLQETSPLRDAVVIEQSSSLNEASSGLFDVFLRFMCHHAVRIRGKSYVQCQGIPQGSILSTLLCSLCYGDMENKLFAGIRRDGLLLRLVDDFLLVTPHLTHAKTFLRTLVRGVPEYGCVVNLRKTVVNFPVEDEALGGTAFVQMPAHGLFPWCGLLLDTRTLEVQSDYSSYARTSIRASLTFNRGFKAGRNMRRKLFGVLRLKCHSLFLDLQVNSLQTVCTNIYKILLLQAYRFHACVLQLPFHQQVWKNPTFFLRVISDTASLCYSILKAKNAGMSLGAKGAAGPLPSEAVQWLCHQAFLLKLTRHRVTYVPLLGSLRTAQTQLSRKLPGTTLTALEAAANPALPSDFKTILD
T1 sequence (O60832 2-514 partner limits assumed): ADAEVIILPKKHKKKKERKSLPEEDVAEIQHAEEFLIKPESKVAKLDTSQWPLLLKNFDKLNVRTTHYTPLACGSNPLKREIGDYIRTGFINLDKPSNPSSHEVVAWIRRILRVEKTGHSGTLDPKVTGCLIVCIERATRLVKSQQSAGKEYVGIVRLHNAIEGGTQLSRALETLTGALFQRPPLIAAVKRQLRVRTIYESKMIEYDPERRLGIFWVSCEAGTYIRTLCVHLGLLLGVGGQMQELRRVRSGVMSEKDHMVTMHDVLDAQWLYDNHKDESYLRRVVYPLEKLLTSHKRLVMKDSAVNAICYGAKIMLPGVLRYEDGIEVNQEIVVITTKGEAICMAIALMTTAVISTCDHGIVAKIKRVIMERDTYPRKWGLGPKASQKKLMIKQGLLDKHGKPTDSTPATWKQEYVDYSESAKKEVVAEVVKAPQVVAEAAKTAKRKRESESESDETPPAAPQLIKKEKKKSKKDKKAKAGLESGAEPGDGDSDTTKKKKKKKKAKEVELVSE
T1 sequence (Q9NPE3 whole entry partner): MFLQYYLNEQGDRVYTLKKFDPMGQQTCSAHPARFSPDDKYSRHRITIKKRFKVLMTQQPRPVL
T1 sequence (Q9NX24 whole entry partner): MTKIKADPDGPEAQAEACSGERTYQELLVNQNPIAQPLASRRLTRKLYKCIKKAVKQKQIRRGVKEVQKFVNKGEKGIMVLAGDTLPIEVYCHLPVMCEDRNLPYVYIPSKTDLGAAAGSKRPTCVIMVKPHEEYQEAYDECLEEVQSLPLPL
T1 sequence (Q9NY12 whole entry partner): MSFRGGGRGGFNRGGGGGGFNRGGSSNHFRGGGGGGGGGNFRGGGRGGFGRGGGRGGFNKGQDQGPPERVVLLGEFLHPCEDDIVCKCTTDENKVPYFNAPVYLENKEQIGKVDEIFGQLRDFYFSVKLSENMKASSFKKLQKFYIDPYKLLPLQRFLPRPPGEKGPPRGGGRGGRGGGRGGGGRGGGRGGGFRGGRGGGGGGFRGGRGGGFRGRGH
As to the kind of experiment: Telomerase activity assay using MGC-803 cells extract. The following applies: mean ± SD. In kind it is biochemical.

Data set [3] has as its system A375 (human melanoma cell). As to the kind of experiment: In vitro anticancer (antiproliferative) MTT assay, A375. In kind it is cell-based. The procedure:
as §1, §2

In data set [4] the test system is SMMC-7721 (human hepatoma cell). As to the kind of experiment: In vitro anticancer (antiproliferative) MTT assay, SMMC-7721. It counts as cell-based. The procedure:
as §1, §2

The test system of data set [5] is human normal liver cell (L-02). Briefly: Toxicity against human normal liver cells, MTT assay. The settings on record: triplicate. In kind it is cell-based. The procedure:
as §1, §2
In order to determine the selective cytotoxicity of selected compounds, we subsequently conducted a proliferative inhibition assay with human normal liver cell (L-02). […] Therefore, in combination with the above points, it is quite meaningful to further explore the mechanisms of this compound.

Data set [6] concerns SGC-7901 (human gastric cancer cell). As to the kind of experiment: In vitro anticancer (antiproliferative) MTT assay, SGC-7901. In kind it is cell-based. How it is done:
as §1, §2

Setting [7] is: Homo sapiens, MDA-MB-231, mean ± SD of three experiments in triplicate.
Setting [8] is: Homo sapiens, MGC-803, mean ± SD of three experiments in triplicate.
[9] abbreviates: Homo sapiens, A-375, mean ± SD of three experiments in triplicate.
Setting [10] is: Homo sapiens, SMMC-7721, mean ± SD of three experiments in triplicate.
The mark [11] stands for this setting: Homo sapiens, SGC-7901, mean ± SD of three experiments in triplicate.
Where [12] appears, read: mean ± SD of three experiments in triplicate.

Structures are written as SMILES.

For the compound `COc1cc(OC)c2c(=O)c(OCC(=O)Nc3nnc(-c4ccc(OC)c(OC)c4)o3)c(-c3cc(OC)c(OC)c(OC)c3)oc2c1` [A27, 2–(5,7-dimethoxy-4-oxo-2–(3,4,5-trimethoxyphenyl)-4H-chromen-3-yloxy)-N-(5–(3,4-dimethoxyphenyl)-1,3,4-oxadiazol-2-yl)acetamide], the melting point lay within 220 to 222 °C. In addition, in data set [1] (setting [7]), the concentration for half-maximal inhibition (IC50) was > 100 µM. Further, the 50% inhibitory concentration (IC50) in data set [2] (setting [8]) is > 100 µM. This compound also came in with a concentration for half-maximal inhibition (IC50) at telomerase of 0.32 ± 0.07 µM. In addition, the IC50 in data set [3] (setting [9]) was > 100 µM. For the same compound, the IC50 in data set [4] (setting [10]) was > 100 µM. In addition, the IC50 in data set [5] worked out at 1380 ± 210 µM. The IC50 in data set [6] (setting [11]) is > 100 µM.

Regarding `COc1cc(OC)c2c(=O)c(OCC(=O)Nc3nnc(-c4ccc(OC)c(OC)c4)o3)c(-c3ccc(OC)c(OC)c3)oc2c1` [B27, N-(5–(3,4-dimethoxyphenyl)-1,3,4-oxadiazol-2-yl)-2–(2-(3,4-dimethoxyphenyl)-5,7-dimethoxy-4-oxo-4H-chromen-3-yloxy)acetamide], the melting point was in the range of 151 to 153 °C. The 50% inhibitory concentration (IC50) in data set [1] (setting [7]) is > 100 µM. Besides, the IC50 in data set [2] (setting [8]) is > 100 µM. Besides, the IC50 on telomerase worked out at 0.51 ± 0.1 µM. Also, the IC50 in data set [3] (setting [9]) is > 100 µM. Moreover, in data set [4] (setting [10]), the IC50 is > 100 µM. The IC50 in data set [5] came to 1670 ± 250 µM. Further, the IC50 in data set [6] (setting [11]) was > 100 µM.

`COc1cc(OC)c2c(=O)c(OCC(=O)Nc3nnc(/C=C/c4ccccc4)o3)c(-c3ccc(OC)c(OC)c3)oc2c1` [B33, (E)-2–(2-(3,4-dimethoxyphenyl)-5,7-dimethoxy-4-oxo-4H-chromen-3-yloxy)-N-(5-styryl-1,3,4-oxadiazol-2-yl)acetamide] returned a melting point of 226 to 228 °C. The 50% inhibitory concentration (IC50) in data set [1] (setting [7]) was > 100 µM. Further, the IC50 in data set [2] (setting [8]) is > 100 µM. Besides, the half-inhibitory concentration (IC50) against telomerase turned out to be 0.97 ± 0.2 µM. Also, the IC50 in data set [3] (setting [9]) is > 100 µM. In addition, in data set [4] (setting [10]), the half-maximal inhibitory concentration (IC50) was > 100 µM. In addition, the concentration for half-maximal inhibition (IC50) in data set [5] was determined as 1010 ± 140 µM. Further, the half-inhibitory concentration (IC50) in data set [6] (setting [11]) is > 100 µM.

`COc1cc(OC)c2c(=O)c(OCC(=O)Nc3nnc(-c4ccc(OC(F)(F)F)cc4)o3)c(-c3cc(OC)c(OC)c(OC)c3)oc2c1` [A19, 2–(5,7-dimethoxy-4-oxo-2–(3,4,5-trimethoxyphenyl)-4H-chromen-3-yloxy)-N-(5–(4-(trifluoromethoxy)phenyl)-1,3,4-oxadiazol-2-yl)acetamide]: the melting point is 230 to 232 °C. The compound also displayed an IC50 against telomerase of 1.21 ± 0.29 µM.

`COc1cc(OC)c2c(=O)c(OCC(=O)Nc3nnc(-c4cccc(Cl)c4)o3)c(-c3ccc(OC)c(OC)c3)oc2c1` [B6, N-(5–(3-chlorophenyl)-1,3,4-oxadiazol-2-yl)-2–(2-(3,4-dimethoxyphenyl)-5,7-dimethoxy-4-oxo-4H-chromen-3-yloxy)acetamide]: the melting point was 220 to 222 °C. At telomerase, this compound had an IC50 of 15.4 ± 4.2 µM.

For `COc1cc(OC)c2c(=O)c(OCC(=O)Nc3nnc(-c4cccc(OC(F)(F)F)c4)o3)c(-c3ccc(OC)c(OC)c3)oc2c1` [B20, 2–(2-(3,4-dimethoxyphenyl)-5,7-dimethoxy-4-oxo-4H-chromen-3-yloxy)-N-(5–(3-(trifluoromethoxy)phenyl)-1,3,4-oxadiazol-2-yl)acetamide], the melting point fell in the range of 207 to 209 °C. At telomerase, this compound had an IC50 of 20 ± 1.96 µM.

In the case of `COc1cc(OC)c2c(=O)c(OCC(=O)Nc3nnc(-c4ccccc4F)o3)c(-c3ccc(OC)c(OC)c3)oc2c1` [B4, 2–(2-(3,4-dimethoxyphenyl)-5,7-dimethoxy-4-oxo-4H-chromen-3-yloxy)-N-(5–(2-fluorophenyl)-1,3,4-oxadiazol-2-yl)acetamide], the melting point is 235 to 237 °C. This compound also came in with an IC50 on telomerase of 15.3 ± 2.71 µM.

Consider `COc1cc(OC)c2c(=O)c(OCC(=O)Nc3nnc(-c4ccccc4)o3)c(-c3cc(OC)c(OC)c(OC)c3)oc2c1` [A1, 2–(5,7-dimethoxy-4-oxo-2–(3,4,5-trimethoxyphenyl)-4H-chromen-3-yloxy)-N-(5-phenyl-1,3,4-oxadiazol-2-yl)acetamide], for which the melting point is 222 to 224 °C. The compound also had a 50% inhibitory concentration (IC50) at telomerase of 21.1 ± 2.28 µM.

Take `COc1cc(OC)c2c(=O)c(OCC(=O)Nc3nnc(-c4cccc(OCc5ccccc5)c4)o3)c(-c3ccc(OC)c(OC)c3)oc2c1` [B30, N-(5–(3-(benzyloxy)phenyl)-1,3,4-oxadiazol-2-yl)-2–(2-(3,4-dimethoxyphenyl)-5,7-dimethoxy-4-oxo-4H-chromen-3-yloxy)acetamide]: the melting point was in the range of 156 to 158 °C. Also, the IC50 at telomerase is > 60 µM.

Regarding `COc1cc(OC)c2c(=O)c(OCC(=O)Nc3nnc(-c4ccc(Br)cc4)o3)c(-c3cc(OC)c(OC)c(OC)c3)oc2c1` [A8, N-(5–(4-bromophenyl)-1,3,4-oxadiazol-2-yl)-2–(5,7-dimethoxy-4-oxo-2–(3,4,5-trimethoxyphenyl)-4H-chromen-3-yloxy)acetamide], the melting point fell in the range of 234 to 236 °C. Besides, the concentration for half-maximal inhibition (IC50) at telomerase is 1.22 ± 0.29 µM.

`COc1cc(OC)c2c(=O)c(OCC(=O)Nc3nnc(-c4ccccc4Br)o3)c(-c3cc(OC)c(OC)c(OC)c3)oc2c1` [A10, N-(5–(2-bromophenyl)-1,3,4-oxadiazol-2-yl)-2–(5,7-dimethoxy-4-oxo-2–(3,4,5-trimethoxyphenyl)-4H-chromen-3-yloxy)acetamide]: the melting point was in the range of 199 to 201 °C. For the same compound, the concentration for half-maximal inhibition (IC50) against telomerase is 21 ± 4.09 µM.

Take `COc1cc(OC)c2c(=O)c(OCC(=O)Nc3nnc(-c4ccc5c(c4)OCCO5)o3)c(-c3cc(OC)c(OC)c(OC)c3)oc2c1` [A29, N-(5–(2,3-dihydrobenzo[b][1, 4]dioxin-6-yl)-1,3,4-oxadiazol-2-yl)-2–(5,7-dimethoxy-4-oxo-2–(3,4,5-trimethoxyphenyl)-4H-chromen-3-yloxy)acetamide]: the melting point lay within 231 to 233 °C. The half-inhibitory concentration (IC50) against telomerase was > 60 µM.

Regarding `COc1cccc2c1C(=O)c1c(O)c3c(c(O)c1C2=O)C[C@@](O)(C(=O)CO)C[C@@H]3O[C@H]1C[C@H](N)[C@H](O)[C@H](C)O1` [ADM, Adriamycin, reference compound], the half-inhibitory concentration (IC50) in data set [1] (setting [7]) is 0.51 ± 0.12 µM; in data set [2] (setting [8]), 0.42 ± 0.08 µM; in data set [3] (setting [9]) it was 0.58 ± 0.2 µM; in data set [4] (setting [10]) it was 0.79 ± 0.13 µM; in data set [6] (setting [11]), 0.82 ± 0.43 µM.

Turning to `C/C(=C\C(=O)Nc1ccccc1C(=O)O)c1ccc2ccccc2c1` [BIBR1532, reference compound], the IC50 in data set [1] (setting [12]) was > 100 µM; in data set [2] (setting [12]) it was > 100 µM; in data set [3] (setting [12]), 57.58 ± 0.21 µM; in data set [4] (setting [12]), > 100 µM; in data set [6] (setting [12]) it was > 100 µM.

Regarding `COc1cc(OC)c2c(=O)c(OCC(=O)Nc3nnc(-c4cccs4)o3)c(-c3cc(OC)c(OC)c(OC)c3)oc2c1` [A32, 2–(5,7-dimethoxy-4-oxo-2–(3,4,5-trimethoxyphenyl)-4H-chromen-3-yloxy)-N-(5-(thiophen-2-yl)-1,3,4-oxadiazol-2-yl)acetamide], the melting point is 224 to 226 °C. The compound further had an IC50 against telomerase of 2.22 ± 0.51 µM.

`COc1cc(OC)c2c(=O)c(OCC(=O)Nc3nnc(-c4ccc(Br)cc4)o3)c(-c3ccc(OC)c(OC)c3)oc2c1` [B8, N-(5–(4-bromophenyl)-1,3,4-oxadiazol-2-yl)-2–(2-(3,4-dimethoxyphenyl)-5,7-dimethoxy-4-oxo-4H-chromen-3-yloxy)acetamide] returned a melting point of 212 to 214 °C. Further, the IC50 against telomerase is 4.29 ± 0.83 µM.

Compound `COc1cc(OC)c2c(=O)c(OCC(=O)Nc3nnc(-c4ccccc4C)o3)c(-c3ccc(OC)c(OC)c3)oc2c1` [B13, 2–(2-(3,4-dimethoxyphenyl)-5,7-dimethoxy-4-oxo-4H-chromen-3-yloxy)-N-(5-o-tolyl-1,3,4-oxadiazol-2-yl)acetamide] returned a melting point of 234 to 236 °C. Further, the half-inhibitory concentration (IC50) on telomerase is 8.09 ± 2.25 µM.

`COc1cc(OC)c2c(=O)c(OCC(=O)Nc3nnc(-c4ccccc4Cl)o3)c(-c3cc(OC)c(OC)c(OC)c3)oc2c1` [A7, N-(5–(2-chlorophenyl)-1,3,4-oxadiazol-2-yl)-2–(5,7-dimethoxy-4-oxo-2–(3,4,5-trimethoxyphenyl)-4H-chromen-3-yloxy)acetamide] returned a melting point of 201 to 203 °C. Further, the IC50 at telomerase was 12.5 ± 1.88 µM.

`COc1cc(OC)c2c(=O)c(OCC(=O)Nc3nnc(-c4cccc([N+](=O)[O-])c4)o3)c(-c3cc(OC)c(OC)c(OC)c3)oc2c1` [A14, 2–(5,7-dimethoxy-4-oxo-2–(3,4,5-trimethoxyphenyl)-4H-chromen-3-yloxy)-N-(5–(3-nitrophenyl)-1,3,4-oxadiazol-2-yl)acetamide] yielded a melting point of 233 to 235 °C. This compound also displayed an IC50 against telomerase of 4.11 ± 0.6 µM.

The compound `COc1cc(OC)cc(-c2nnc(NC(=O)COc3c(-c4cc(OC)c(OC)c(OC)c4)oc4cc(OC)cc(OC)c4c3=O)o2)c1` [A26, 2–(5,7-dimethoxy-4-oxo-2–(3,4,5-trimethoxyphenyl)-4H-chromen-3-yloxy)-N-(5–(3,5-dimethoxyphenyl)-1,3,4-oxadiazol-2-yl)acetamide] had a melting point of 198 to 200 °C. This compound also came in with an IC50 against telomerase of 1.06 ± 0.11 µM.
